Experimental data as given in patent US8293764B2, “Compositions and methods for disruption of BRCA2-Rad51 interaction” (The Regents of the University of California, priority 2004, dated 2012).
“Also recorded” adds a separate entry of the source.

Assays:
Type in all cases: cell-based
[1] = system: breast cancer cell lines (MDA-MB-231, MCF-7, MDA-MB-468, SKBR3 and MDA-MB-435); experiment: Cell growth curves, trypan blue exclusion assay; conditions: 0, 5, 10, 20 μM; 1-5 days
Procedure: (§1) The inventors examined the effects of IBR2 on the growth and viability of a panel of breast cancer cell lines. Five exponentially growing breast cancer cell lines (MDA-MB-231, MCF-7, MDA-MB-468, SKBR3 and MDA-MB-435) were incubated with IBR2 at various concentrations (0, 5, 10 and 20 μM) for various periods of time (1, 2, 3, 4 and 5 days). The viable cell numbers were then counted by trypan blue exclusion assay. […] We also examined the effects of IBR2 on the growth and viability of cultured breast cancer cells (MDA-MB-468, MDA-MB-435, MCF-7, T47D) using the 3-(4,5-dimethylthiazol-2-yl)-2,5-diphenyltetrazolium bromide (MTT) assay.
(§2) Cell proliferation assay and clonogenic survival assays: To obtain cell growth curves, 1×10^4 cells were seeded in 12-well plate for 24 hours. Cells were then treated, in duplicate, with various concentrations of IBR2 in the presence of 0.4% DMSO. The viable cells were counted by trypan blue exclusion assay daily. MTT assay was performed as previously described (Alley et al., 1988).

[2] = system: breast cancer cells (MDA-MB-468, MDA-MB-435, MCF-7, T47D); experiment: MTT assay
Procedure: as §1, §2

[3] = system: MCF-7 cells; experiment: S phase entry (BrdU) after nocodazole synchronization; conditions: cells synchronized at M phase by nocodazole, re-plated
Procedure: To test whether IBR2 treated cells are arrested at G1 and thus fail to enter S phase, MCF-7 cells were synchronized at M phase by nocodazole treatment and then re-plated to allow the entry to G1 phase. At different time points, cells were pulse labeled with BrdU to monitor S phase entry.
(§3) Cell culture, cell synchronization, BrdU labeling and determination of mitotic index: Breast cancer cell lines and MEF cell lines were cultured in high-glucose Dulbecco modified Eagle medium containing 10% fetal bovine serum. MCF-10A cells were cultured as described previously (Debnath et al., 2003). Cell synchronization at M phase was achieved by treatment with 0.1 μg/ml nocodazole for 8 hours. Cell synchronization at G1/S boundary was achieved by treatment with 1 mM hydroxyurea for 17 hours, 9 hours of release and again with 1 mM hydroxyurea for 14 hours. For BrdU labeling, cells were incubated with BrdU for 30 minutes and fixed for BrdU immunostaining using a BrdU labeling kit (Amersham Biosciences). For determination of mitotic index, cells were fixed in 4% formaldehyde in PBS containing 0.1 μg/ml DAPI for 30 minutes at room temperature and examined by fluorescence microscopy. 500-1000 nuclei per sample were counted to determine the number of M phase cells which only includes prometaphase, metaphase, anaphase and telophase.

[4] = system: MCF-7 cells; experiment: Fate of S phase cells after hydroxyurea synchronization (BrdU uptake, mitotic index, viable cells)
Procedure: To further examine the fate of cells in S phase upon IBR2 treatment, MCF-7 cells were synchronized at G1/S transition by hydroxyurea treatment and then released to allow S phase entry by washing out the reagents. These cells were treated with 20 μM IBR2 and BrdU, and BrdU uptake was measured for DNA synthesis, as well as the mitotic index and the number of viable cells during an 18-hour period. […] Moreover, the number of mock treated cells doubled at the completion of M phase, while the number of IBR2 treated cells decreased to around 50%.
as §3

[5] = system: BRCA2-/-:p53-/-, BRCA1-/-:p53-/- and p53-/- MEFs; experiment: Sensitivity of isogenic MEFs to IBR2; conditions: compared with BRCA1-/-:p53-/- and p53-/- MEFs
Description: Next, the inventors examined the sensitivity to IBR2 treatment of isogenic MEFs with genotypes of BRCA2−/−:p53−/−, BRCA1−/−:p53−/− and p53−/−.

[6] = system: g-H2AX foci in MCF-7 cells; experiment: IR-induced g-H2AX foci formation (immunostaining); conditions: 20 μM IBR2, 20 Gy
Procedure: Since interaction between BRCA2 and Rad51 appears to be crucial for the formation of IR-induced Rad51 foci, it was contemplated that IBR2 may mimic BRC repeats to disrupt the BRCA2-Rad51 interaction and to thereby diminish the IR-induced Rad51 foci formation. To test this possibility, the number of the MCF-7 cells that formed IR-induced Rad51 foci was measured after IBR2 treatment. […] To test whether this effect applies to other molecules involved in DSB repair, the inventors then examined the IR-induced foci formation of g-H2AX, which is histone H2AX phosphorylated at serine 139 by ATM for the recruitment of NBS1, 53BP and BRCA1, but not Rad51.
Immunostaining Rad51 and g-H2AX foci: MCF-7 cells were treated with 20 μM IBR2 for 7 or 19 hours and then g-irradiated at 20 Gy. Cells were incubated for an additional 5 hours with 20 μM IBR2, then fixed with 4% paraformaldehyde in PBS containing 0.5% Triton X-100. The fixed cells were incubated with a-Rad51 antibody (mAb 1F5) or a-g-H2AX antibody (Upstate). Rad51 and g-H2AX foci positive cells were subsequently counted as described (Chen et al., 1999).

[7] = system: CAPAN-1; experiment: Sensitivity of BRCA2-truncated pancreatic cancer cell line; conditions: preliminary results
Description: The absence of BRCA2 in cells also appears to have a significant impact on Rad51 stability rendering them much more sensitive to IBR2 treatment. […] It is therefore contemplated that IBR2 may be particularly useful in treating cancer cells lacking functional BRCA2 (or having a reduced BRCA2 expression) albeit only a small fraction of cancer.

O=S(=O)(Cc1ccccc1)N1C=Cc2ccccc2C1c1c[nH]c2ccccc12 (stereo not drawn) [IBR2, 2-(benzylsulfonyl)-1-(1H-indol-3-yl)-1,2-dihydroisoquinoline]
growth of breast cancer cell lines (viable cell numbers) [1]: retarded growth of breast tumor cells in culture; also recorded: significantly inhibited the growth
IC50 [2]: ~10 µM
S phase entry (BrdU positive cells) [3]: completely arrested at G1 and failed to enter S phase
DNA synthesis (BrdU uptake), S phase progression ([4]; 20 μM IBR2, 18-hour period): does not interfere with S phase progression
mitotic index (M phase entry) ([4]; 20 μM IBR2, 18-hour period): no or little IBR2 treated cells entered M phase
viability at 20 µM ([4]; Homo sapiens, MCF7, 20 μM IBR2, at completion of M phase, read-out: number of viable cells): ~50%
sensitivity of BRCA2-/-:p53-/- MEFs to IBR2 [5]: most sensitive
IR-induced g-H2AX foci formation [6]: no effect on g-H2AX foci formation
sensitivity of CAPAN-1 to IBR2 [7]: significant sensitivity
